Values of other authors in patent publication US8426470B2, “Method for alleviating signs and symptoms of spasticity” (Sun Pharmaceutical Industries Ltd., priority 2006, dated 2013).

How the values were obtained:
[1] = test system: spasticity; conditions: in vivo

NCC(CC(=O)O)c1ccc(Cl)cc1 (centres unmarked) [Baclofen, 4-amino-3-(4-chlorophenyl)-butanoic acid]
Plasma elimination half-life (in vivo): approximately 3.5 hours | concentrations in the cerebrospinal fluid (CSF) relative to those in the plasma (in vivo): about 12% | elimination half-life from the CSF (in vivo): 4 to 5 h | fraction metabolized in the liver (remainder excreted mainly by the kidneys in unchanged form): 15% | lowest concentration in plasma at which a significant reduction in spasticity was observed [1]: 90 ng/mL
